Reference: article PMC3631453 (ACS chemical biology, 2013)
Marks after values point to notes of the source that are not given here.

Legend:
U2OS cells = experiment: Cell density of transfected U2OS cells; type: cell-based
ERβ = ERβ (Homo sapiens, UniProt Q92731); experiment: ER-regulated reporter gene; settings: U2OS, read-out: Hormonal activity (U2OS Cells) ERβ IA (intrinsic activity)
full-length human ERβ = full-length human ERβ (Homo sapiens, UniProt Q92731); settings: relative to E2 = 100%; cited from earlier work
Sequence of full-length human ERβ (Q92731 whole entry): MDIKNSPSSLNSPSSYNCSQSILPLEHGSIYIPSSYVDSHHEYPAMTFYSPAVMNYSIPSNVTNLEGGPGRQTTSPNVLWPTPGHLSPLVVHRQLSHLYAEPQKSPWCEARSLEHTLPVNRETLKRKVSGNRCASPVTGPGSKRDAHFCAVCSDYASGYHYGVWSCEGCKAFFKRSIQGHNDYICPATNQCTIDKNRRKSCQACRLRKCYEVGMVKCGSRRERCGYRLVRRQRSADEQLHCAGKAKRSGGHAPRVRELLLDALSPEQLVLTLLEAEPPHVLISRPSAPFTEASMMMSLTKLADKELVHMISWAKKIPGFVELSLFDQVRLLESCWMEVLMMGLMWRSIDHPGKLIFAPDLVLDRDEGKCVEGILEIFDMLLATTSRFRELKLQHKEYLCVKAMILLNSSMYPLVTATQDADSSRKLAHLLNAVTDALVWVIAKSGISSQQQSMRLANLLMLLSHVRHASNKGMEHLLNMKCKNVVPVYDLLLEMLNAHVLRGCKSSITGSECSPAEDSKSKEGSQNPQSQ

MCF-7 = experiment: Growth inhibition of ER-positive MCF-7 cells, 96h; type: cell-based; settings: read-out: Growth inhibition IC50 after 96h MCF7, OHT ligands
MDA-MB-231 = experiment: Growth inhibition of ER-negative MDA-MB-231 cells, 96h; type: cell-based; settings: read-out: Growth inhibition IC50 after 96h MDA-MB-231, OHT ligands

Sequence of ERβ (Q92731 whole entry): as above

SMILES	Hormonal activity (U2OS Cells) ERα CD (cell density) (U2OS cells; 10nM) [%]	Hormonal activity (U2OS Cells) ERβ CD (cell density) (U2OS cells; 10nM) [%]	Emax (ERβ) [%]	RBA for ERβ (full-length human ERβ)	IC50 (MCF-7) [nM]	IC50 (MDA-MB-231) [nM]	Hormonal activity (U2OS Cells) ERα CD (cell density) (U2OS cells; 1μM) [%]	Hormonal activity (U2OS Cells) ERβ CD (cell density) (U2OS cells; 1μM) [%]
CC/C(=C(/CC)c1ccc(O)cc1)c1ccc(O)cc1 [DES, diethylstilbestrol]	103	90	111	278 ± 54 ^f %	–	–	–	–
CC/C(=C(\c1ccc(O)cc1)c1ccc(OCCN(C)C)cc1)c1ccccc1 [OHT, hydroxytamoxifen]	–	–	–	–	150	4590	110	92
